# Assay results reported in patent publication US20220387368A1, “AN INHIBITOR OF AN IRON-CONTAINING HYDROGENASE OF A METHANOGENIC ARCHAEON FOR USE IN THE TREATMENT OR PREVENTION OF A PARKINSONIAN CONDITION” (UNIVERSITE DU LUXEMBOURG, priority 2019, published 2022).
# Assays:
# [1] = tested on: transgenic mice (Thy1-Syn14 males); settings: mouse, in vivo
# Procedure: Newly formed oligomeric forms are then propagated to the CNS via the vagus nerve.
# To control toxicity and set an upper threshold level for the chronic exposure study, the ideal concentration in the animals' drinking water (ad libitum) is determined by testing three different concentrations. As reference, the LD50 value determined in rats is used as a threshold for an entire day. The animals, of an average weight of 28 g, take in […] of 2-HP per day. The second factor to account for is the volume of water a C57BI6/j mouse drinks per day, which varies between 5 mL and 8 mL. With an […] water intake per day, the maximum concentration the inventors use is 695 μg/mL of dissolved 2-HP. However, lower doses are aimed for:
# These 3 doses are tested on a total of 48 animals. 24 wild-type and 24 transgenic animals are distributed amongst 12 groups. It is essential to have both genotypes in the study, since it cannot be foreseen how human wild-type alpha-synuclein and 2-HP interact in an in vivo model. Further, short-term and long-term effects are analysed. Additionally, this allows to proceed with the post-mortem analysis of the 14 days cohort, allowing to gather information of the early effects of 2-HP on an in vivo system. The following design is used:
# In the in-life phase, all animals are checked regularly. Overall behavior in the cage is checked daily. […]
# control strain = assay: Yeast growth toxicity assay, control strain; type: cell-based
# Procedure: (§1) Yeast cells were grown in synthetic complement (SC) media containing 6.7 g/L yeast nitrogen base without amino acids, 5 g/L ammonium sulfate supplemented with 2 g/L SC. Media was autoclaved and the carbon source (8% raffinose or galactose) was added to a final concentration of 2%.
# (§2) Four fresh single colonies of the Hitox strain and its respective control strain were inoculated from SC-2% glucose plates into 5 mL SC-2% raffinose and incubated overnight with shaking (200 rpm) at 30° C. After ≈20 h, overnight cultures were diluted to OD 0.5 and 2 μL of the yeast cultivation was added to 78 μL drug containing media to a final optical density of 0.0125 in a 384-well microplate. 2-HP was diluted in SC-2% raffinose/galactose and tested at different concentrations (1-100 mM). Finally, the plates are measured in a microplate reader (TECAN™ Infinite M200Pro), at an interval of 10 minutes during 72 h at 30° C. Yeast growth phenotyping was performed as previous described (Jung et al. 2015). Final biomass was corrected using the GATHODE software (Jung et al., 2015). The OD600 at 48 h was taken for the quantification.
# rats = settings: oral administration; cited from earlier work
# enteric neurons = assay: Enteric neuron cell viability (MTT) assay; type: cell-based; settings: 24 h treatment, MTT (FIG. 5)
# Procedure: Enteric neurons were cultured in differentiation medium, consisting on Neurobasal (Invitrogen, 21103049) supplemented with 1:200 N2 (Invitrogen, 17502048), 1:100 L-Glutamine (Invitrogen, 25030-024), 1:100 B-27 without Vitamin A (Life Technologies, 12587-010), 1:100 Penicillin/Streptomycin (Invitrogen, 15140122), 25 ng/mL GDNF (Peprotech, 450-10) and 100 μM Ascorbic Acid (Sigma, A5960). Cells were cultured for 21 days in a 6-well plate, then detached with Accutase (Sigma, A6964), and replated into a 96-well plate. Cells were maintained under differentiating conditions until day 31, when they were treated with increasing concentrations of 2-hydroxypyridine (Sigma, H56800). Tested concentrations were as follows: 1 μM, 3 μM, 6 μM, 10 μM, 30 μM, 60 μM, 100 μM, 300 μM, 600 μM, 1 mM and 3 mM.
# 2-Hydroxypyridine was reconstituted to 10 mM in the differentiation medium described above.
# Cells were treated for 24 h, then cell viability was assessed performing a Tetrazolium (MTT) assay. Thiazolyl Blue tetrazolium Bromide (Sigma, M5655) was reconstituted to a 5 mg/mL solution in differentiation media and filtered. 10 μL of the solution were then added to every well containing 100 μL of media. Plate was incubated for 2 h in a normal incubator (37° C., 5% CO2). […] Cells were disaggregated by pipetting vigorously and absorbance was read at 570 nm, using the microplate Cytation 5M reader (Biotek).
# [2] = tested on: HiTox strains of yeast expressing human alpha-synuclein; assay: Yeast growth toxicity assay, HiTox strain; type: cell-based
# Procedure: as §1, §2
# alpha-synuclein = target: T1, alpha-synuclein (Homo sapiens, UniProt P37840); assay: Alpha-synuclein aggregation; settings: in contact with alpha-synuclein
# T1 construct: expressed in transfected cells; host or cells: HiTox yeast strains, galactose-inducible expression
# Procedure: The aggregation of alpha-synuclein is the key molecular hallmark of PD.
# The following abbreviations have the meaning given in brackets: α-Syn (alpha-synuclein), α-Syn-F (fibrillary alpha-synuclein, i.e. alpha-synuclein aggregations), Hoechst (DNA staining), TUJ1 (general neuronal marker), TH (tyrosine hydroxylase) and CC3 (cleaved caspase 3 staining, i.e. cell death marker, showing toxicity).
# Cells fixed in 4% paraformaldehyde (Merck Millipore, 1004965000) for 15 min at RT and then washed 3× for 5 min with PBS at RT. Prior to immunostaining, a permeabilization step was performed using 0.05% Triton-X100 solution in PBS for 10 min at 4° C. Cells were then blocked for 1 h at RT with 10% FBS in PBS. Incubation with α-synuclein antibody (NOVUS biologicals, NBP1-05194, 1:1000), α-synuclein filament antibody (Abcam, ab20953, 1:5000) and TUJ1 (Millipore, AB9354, 1:600) was done overnight at 4° C. in blocking buffer. The following day, cells were washed with PBS 3× for 5 min at RT. Then, incubation with the corresponding secondary antibodies, Alexa Fluor anti-chicken 488 (Invitrogen, A-11039, 1:1000), Alexa Fluor anti-mouse IgG1 647 (Invitrogen, A-21240, 1:1000) and Alexa Fluor anti-rabbit 568 (Invitrogen, A11036, 1:1000) was performed for 2 h at RT in blocking buffer. Hoechst 33342 solution (Invitrogen, 62249, 1:1000) was added during this step to stain the nuclei. […]
# IL-1b mRNA expression = IL-1b mRNA expression (qPCR) in murine BMDM model; type: cell-based; settings: 10 mM 2-HP, normalized to β-actin, relative to 0 mM
# Procedure: The inventors have tested whether 2-HP can act as signal 1 in the activation of the NLRP3 inflammasome in murine bone-barrow derived macrophages (BMDMs). NLRP3 inflammasome activation is thought to play a role in the pathogenesis of neurodegenerative disorders, and increased levels of this inflammasome and of the related cytokine IL-1b have been detected in Parkinson's patients (Guan & Han, 2020). In these experiments, the cells were grown in BMDM growth media and treated with 2-hydroxypyridine (2.5 and 10 mM) for up to 72 hours. Inflammasome activation was evaluated with qPCR for IL-1b expression (normalized to β-actin), considering the fold change relative to 0 mM 2-HP of each time point. There was a 3.2-fold increase in IL-1b mRNA after 3 hours of 10 mM 2-HP treatment, and 1.5-fold increase after 24 hours (FIG. 8).
# wildtype mice = assay: Adhesive removal test after injection into the brain; type: in vivo; settings: higher 2-HP concentrations, 15 days post-injection, vs PBS
# Procedure: The in vivo work testing for effects of 2-HP in a mouse model lead to results from a small-scale 15-day experiment. In this experiment, 2-HP was injected at several concentrations (5, 50 and 100 mM) into the brain of transgenic mice overexpressing human alpha-synuclein, and of wildtype control mice.
# [3] = control, higher concentration of 2-HP (FIG. 3C)
smiles,measurement,setting,value
"Oc1ccccn1 [2-HP, 2-hydroxypyridine]",alpha-synuclein in ENS,[1],increased accumulation up to aggregation of alpha-synuclein
same,motor symptoms and PD-like pathology,[1],exacerbation of motor symptoms
same,lag time of growth curve,control strain; [3],prolonged
same,yield of growth curve,control strain; [3],unaffected
same,"toxicity (growth), control strain","control strain; in presence of galactose, control strain (FIG. 3B)",not in the control strain
same,LD50,rats,124 mg/kg
same,LD50,enteric neurons,around 3 mM
same,dose at which selectively toxic to transgenic alpha-synuclein expressing yeast,[2]; HiTox strains of yeast expressing human alpha-synuclein,1 mM
same,"toxicity (growth), alpha-synuclein induced","[2]; in presence of galactose, HiTox strains (FIG. 3B)",A toxic dose-response can be observed in the HiTox strains
same,"toxicity (growth), alpha-synuclein not induced",[2]; in presence of raffinose (FIG. 3A),A toxic dose-response can be observed
same,effect on alpha-synuclein aggregation,alpha-synuclein,promotes aggregation
same,increase in IL-1b mRNA,IL-1b mRNA expression; 3 hours,3.2 fold
same,increase in IL-1b mRNA,IL-1b mRNA expression; 24 hours,1.5 fold
same,performance in adhesive removal test (sensorimotor function),wildtype mice,perform worse
